Measurements as given in patent US10781262B2, “Combination therapy of T cell activating bispecific antigen binding molecules and PD-1 axis binding antagonists” (Hoffmann-La Roche Inc., priority 2014, dated 2020).

Columns and labels:
[1] = test system: FolR1 expressing tumor cells and FolR1 negative cell line MKN-45; test: Flow cytometry binding to tumor cells with different FolR1 expression levels; parameters: species or system human
Source text: FIGS. 6A-E depict graphs summarizing binding of FolR1 IgGs to cells with different FolR1 expression levels. […] DP47 IgG was included as isotype control and MKN-45 were included as FolR1 negative cell line.
The used panel of tumor cells contains FolR1 high, intermediate and low expressing tumor cells and a FolR1 negative cell line.
The amount of bound construct is proportional to the FolR1 expression level and there is still good binding of the constructs to the FolR1 low cell line HT-29 detectable. […] DP47 TCB is an untargeted TCB and was prepared as described in WO2014/131712.

SKOV3 cells = test: T cell mediated killing (LDH release); format: cell-based, human; conditions: SKOV3 and HT-29 cells
Method: (§1) FIGS. 7A-L depict graphs summarizing T cell mediated killing of HT-29 and SKOV3 cells. FolR1 TCBs were used to test T cell mediated killing of HT-29 and SKOV3 tumor cells and upregulation of activation marker on T cells upon killing. […] DP47 TCB was included as negative control. After 48 h incubation upregulation of the activation marker CD25 and CD69 on CD8 T cells and CD4 T cells upon killing of SKOV3 (FIGS. 7E-H) or HT-29 (FIG. 7I-L) tumor cells was assessed by flow cytometry.
(§2) Overall killing of SKOV3 cells was higher compared to HT-29 which reflects the higher expression levels of FolR1 on SKOV3 cells (FIGS. 7A-D). In line with this, a strong upregulation of the activation marker CD25 and CD69 on CD4^+ T cells and CD8^+ T cells was detected. Activation of T cells was very similar in the presence of SKOV3 cells and HT-29 cells.

[2] = test system: CD4 and CD8 T cells with SKOV3 cells; test: T cell activation upon killing (CD25, CD69, flow cytometry); format: cell-based, human; conditions: SKOV3 and HT-29 cells
Method: as §1, §2

[3] = test system: T cells in FolR1 positive tumor digests or malignant effusions; test: Ex vivo treatment of tumor samples with FolR1-TCB (T cell activation); format: cell-based, human
Method: FolR1 positive tumor digests or malignant effusions were thawed, washed and plated in 96-well flat bottom cell culture plates (BD Falcon) with a density of 3×10^5 cells/200 μl/well in complete medium (DMEM+Sodium Pyruvate (1 mM)+MEM non essential AA (1×)+L-Glutamin (2 mM)+Penicillin/Streptomycin ([…])+2-Mercaptoethanol ([…])+Ciproxin (1 mg/ml)+10% human Serum). The samples were cultured in the presence or absence of FolR1-TCB or DP47 TCB at a concentration of 2 nM for 24h. Activation of CD8+ and CD4^+ T cells (CD45^+CD3+) upon FolR1-TCB treatment was determined by multicolor flow cytometry by measuring the expression of the cell surface markers CD25, CD69, CD137, ICOS, PD-1 and Tim-3. Furthermore the expression of granzyme B and IFN-γ was determined by intracellular staining.
To determine FolR1-TCB induced T cell activation, tumor samples were cultured in the presence or absence of FolR1-TCB or the control TCB DP-47. Then, T cells were characterized by multicolor flow cytometry for expression of activation markers and T cell effector functions, as described above. […] FolR1-TCB-induced perforin secretion was highly variable in TILs, and severely impaired in a subset of patients (FIG. 12N).

[4] = test system: CFSE-labelled Skov3 cells; test: Killing assay with tumor samples; format: cell-based, human
Method: To determine the FolR1-TCB induced tumor cell killing, 3×10^4 CFSE-labelled Skov3 cells were cocultured with tumor samples in the presence or absence of FolR1-TCB at a concentration of 2 nM for 24h in 96-well flat bottom cell culture plates. The E:T ratio (E: effector CD45^+CD3^+ cells; T: target FolR1^+ cells from tumor and added Skov3 cells) was adjusted to 1:1 in each well and the cell number of the added tumor samples was calculated for each sample according to prior characterization by flow cytometry. Cell death of Skov3 cells was determined by flow cytometry by measuring activated caspase 3 and the live/dead marker Live/Dead-near-IR. The assay was performed in triplicates. The FolR1-TCB mediated killing was calculated according to the following equation: % of specific killing=100−[(% of Skov3 live cells in FolR1-TCB treated sample/% of Skov3 live cells in untreated sample)×100].
To compare the FolR1-TCB-induced killing capacity of T-cells between tumor samples, and to exclude additional factors suppressing T-cell functionality, such as expression of PD-L1 on the tumor cells, we exogenously added CFSE-labeled FolR1^+ Skov3 cells to the tumor digests and adjusted the E:T ratio to 1:1, essentially as described above. We then measured the FolR1-TCB-induced killing of CFSE-labeled Skov3 cells, which allowed us to also include FolR1^− tumor samples into the analysis. […]

[5] = test system: CD8^+ T-cells with FolR1^+ ovarian cancer cell line Skov3; test: PBMCs from healthy donors co-cultured with Skov3 cells, FolR1-TCB; format: cell-based, human; conditions: 0.6 pM to 2 nM for 24 h
Method: FIGS. 40A-C show activation of CD8^+ T-cells upon exposure to increasing concentrations of FolR1-TCB. PBMCs were co-cultured with Skov3 cells for 24 h in the presence or absence of FolR1-TCB or the unspecific control DP-47-TCB. […] Shaded histogram: isotype control; open histogram: anti-FolR1-antibody. FIG. 40B: The expression of the activation markers CD25, CD137, and ICOS on CD8^+ T-cells was determined by flow cytometry.
To assess the effect of FolR1-TCB on T-cell activation peripheral blood mononuclear cells (PBMCs) from healthy donors were co-cultured with the FolR1^+ ovarian cancer cell line Skov3 (FIG. 40A). […] In addition, T-cells secreted IL-2, IFN-γ, and TNF.

T cells in tumor digests = test: Polyclonal stimulation with anti-CD3/CD28 antibodies and PD-1 blockade; format: cell-based, human; conditions: 10 μg/ml, 24 hrs
[6] = test system: T cells in FolR1^+ tumor digests or malignant effusions; test: FolR1-TCB with PD-1 blockade in tumor digests or malignant effusions; format: cell-based, human; conditions: combination with FolR1-TCB
Method: FIG. 38A-D: FolR1^+ tumor digests or malignant effusions were cultured for 24 h with FolR1-TCB in the presence or absence of a PD-1 blocking antibody. […] The increase in cytokine secretion upon combined FolR1-TCB and anti-PD-1 treatment compared with FolR1-TCB alone was determined in PD-1^hi scarce and abundant tumors. FIG. 38E: Tumor digests or malignant effusions were co-cultured with exogenously added fluorescently labeled Skov3 cells at an E:T ratio of 1:1 for 24 h in the presence or absence of a PD-1 blocking antibody and FolR1-TCB. The increase in specific killing by the anti-PD-1 antibody was compared in PD-1^hi scarce and abundant tumors. p-values were calculated using the unpaired Mann-Whitney test.
As the level of PD-1 expression on TILs correlates with the efficacy of FolR1-TCB, we analyzed whether blockade of the PD-1/PD-L1 axis in combination with FolR1-TCB treatment might be able to restore T-cell function.

[7] = test system: T cells in EpCAM positive tumor digests or malignant effusions; test: Ex vivo treatment of tumor samples with catumaxomab; format: cell-based, human; conditions: 10 ng/ml, 24h; 4 NSCLC tumor digests
Method: The trifunctional TCB catumaxomab (Removab®) was obtained from Fresenius. The experimental conditions were similar as indicated above for FolR1-TCB. Briefly, EpCAM positive tumor digests or malignant effusions were cultured in the presence or absence of catumaxomab at a concentration of 10 ng/ml for 24h. Analysis of CD8÷ and CD4^+ positive T cells (CD45^+CD3+) was performed as described above.
To determine to which extent catumaxomab induces T cell activation and to confirm the findings described above using a second, independent T cell bispecific molecule, 4 tumor digests from patients with NSCLC were exposed to catumaxomab, a trifunctional bispecific antibody recognizing CD3 on T cells and EpCAM on tumor cells. Then, T cells were characterized by flow cytometry for expression of activation markers and T cell effector functions (FIG. 17A-D). […] Accordingly, the baseline expression of inhibitory receptors differed between the patients (FIG. 17E-H).

**Q.** Which results are given for “DP47 TCB: untargeted TCB, negative control, prepared as described in WO2014/131712”?
**A.** binding to panel of tumor cell lines [1]: no binding; T cell mediated killing (in words) (SKOV3 cells): does not induce any killing; upregulation of CD25 and CD69 on T cells (in words) [2]: no significant upregulation of CD25 and CD69 on T cells; T cell activation in tumor samples (in words) [3]: did not induce any T cell activation; tumor cell killing (in words) [4]: did not induce any tumor cell killing; activation of CD8^+ T-cells (in words) [5]: did not induce any T-cell activation

**Q.** What does the source list for nivolumab: PD-1 blocking antibody?
**A.** restoration of T cell effector function by PD-1 blockade (in words) (T cells in tumor digests): could restore T cell effector function such as production and secretion of IL-2, IFN-γ and TNF-α only in some patients; secretion of IFN-γ, TNF, IL-2 and perforin upon combined treatment with FolR1-TCB (in words) ([6]; 24 h): could be increased only in some of the PD-1^hi scarce tumors; cytotoxic tumor cell killing upon additional PD-1 blockade (in words) ([6]; Skov3 cells E:T 1:1): could neither be improved

**Q.** How did the “catumaxomab induced T cell activation (in words)” value [7] turn out when catumaxomab was run?
**A.** Its value is “striking heterogeneity in catumaxomab induced T cell activation”.
